Assay results from patent US10519099B2, “Cystobactamides” (priority 2014, dated 2019).
≈ marks a conversion by molar mass, not a printed value. Where two headings read alike, the source gives them in different places.

Experiments:
[1] = tested on: Serratia marcescens DSM-30121; test: MIC microdilution, Serratia marcescens DSM-30121; type: cell-based; details: Serratia marcescens, DSM30121; larger panel; read-out: MIC Serratia marcescens DSM-30121
Experimental: (§1) Indicator strains used in susceptibility assays were either part of our strain collection or purchased from the German Collection of Microorgansims and Cell Cultures (DSMZ) or from the American Type Culture Collection (ATCC). E. coli strain WT and corresponding E. coli mutants were kindly provided by Prof. Dr. P. Heisig, Pharmaceutical Biology and Microbiology, University of Hamburg. E. coli strains JW0401-1 (WT) and Δtsx were obtained from the CGSC collection.
(§2) MIC values were determined in standardized microdilution assays. Overnight cultures were diluted in the appropriate growth medium to achieve an inoculum of 10^4-10^6 cfu/mL. Yeasts were grown in Myc medium (1% phytone peptone, 1% glucose, 50 mM HEPES, pH 7.0), S. pneumonia and Enterococcus spp. in tryptic soy broth (TSB: 1.7% peptone casein, 0.3% peptone soymeal, 0.25% glucose, 0.5% NaCl, 0.25% K2HPO4; pH 7.3); M. smegmatis in Middlebrook 7H9 medium supplemented with 10% Middlebrook ADC enrichment and 2 ml/I glycerol). All other listed bacteria were grown in Müller-Hinton broth (0.2% beef infusion solids, 1.75% casein hydrolysate, 0.15% starch, pH 7.4). Cystobactamides and reference drugs were added directly to the cultures in sterile 96-well plates as duplicates and serial dilutions were prepared. Microorganisms were grown on a microplate shaker (750 rpm, 30-37° C., 18-48 h), except S. pneumonia, which was grown at non-shaking conditions (37° C., 5% CO2, 18 h). Growth inhibition was assessed by visual inspection and the MIC was defined as the lowest concentration of compound that inhibited visible growth.

[2] = tested on: Escherichia coli WT-3.2 [gyrA(D87G)]; test: MIC microdilution, E. coli WT-3.2 [gyrA(D87G)]; type: cell-based; details: read-out: MIC Escherichia coli WT-3.2 [gyrA(D87G)]
Experimental: as §1
as §2, with “Cystobactamides and reference drugs were added directly to the cultures in sterile 96-well plates as duplicates and serial dilutions were prepared. Microorganisms were grown on a microplate shaker (750 rpm, 30-37° C., 18-48 h), except S. pneumonia, which was grown at non-shaking conditions (37° C., 5% CO2, 18 h).” left out

[3] = tested on: Burkholderia cenocepacia DSM-16553; test: MIC microdilution, Burkholderia cenocepacia DSM-16553; type: cell-based; details: DSM16553, larger panel, read-out: MIC Burkholderia cenocepacia DSM-16553
Experimental: as §1
as §2, with “Cystobactamides and reference drugs were added directly to the cultures in sterile 96-well plates as duplicates and serial dilutions were prepared. Microorganisms were grown on a microplate shaker (750 rpm, 30-37° C., 18-48 h), except S. pneumonia, which was grown at non-shaking conditions (37° C., 5% CO2, 18 h).” left out

[4] = tested on: Enterococcus faecalis ATCC29212; test: MIC microdilution, Enterococcus faecalis ATCC29212; type: cell-based; details: ATCC29212, larger panel, read-out: MIC Enterococcus faecalis ATCC29212
Experimental: as §1
as §2, with “Cystobactamides and reference drugs were added directly to the cultures in sterile 96-well plates as duplicates and serial dilutions were prepared. Microorganisms were grown on a microplate shaker (750 rpm, 30-37° C., 18-48 h), except S. pneumonia, which was grown at non-shaking conditions (37° C., 5% CO2, 18 h).” left out

[5] = tested on: Klebsiella pneumoniae DSM-30104; test: MIC microdilution, Klebsiella pneumoniae DSM-30104; type: cell-based; details: DSM30104, larger panel, read-out: MIC Klebsiella pneumoniae DSM-30104
Experimental: as §1
as §2, with “Cystobactamides and reference drugs were added directly to the cultures in sterile 96-well plates as duplicates and serial dilutions were prepared. Microorganisms were grown on a microplate shaker (750 rpm, 30-37° C., 18-48 h), except S. pneumonia, which was grown at non-shaking conditions (37° C., 5% CO2, 18 h).” left out

[6] = tested on: Pseudomonas aeruginosa DSM-46316 (ESBL); test: MIC microdilution, P. aeruginosa DSM-46316 (ESBL); type: cell-based; details: Pseudomonas aeruginosa, DSM46316; larger panel; read-out: MIC Pseudomonas aeruginosa DSM-46316 (ESBL)
Experimental: as §1, §2

E. coli DSM-1116 = test: MIC microdilution, E. coli DSM-1116; type: cell-based, Escherichia coli; details: Escherichia coli, DSM1116
Experimental: as §1, §2

[7] = tested on: P. aeruginosa DSM-24600 (ESBL); test: MIC microdilution, P. aeruginosa DSM-24600 (ESBL); type: cell-based, Pseudomonas aeruginosa; details: Pseudomonas aeruginosa, DSM24600
Experimental: as §1, §2

[8] = tested on: Candida albicans DSM-1665; test: MIC microdilution, Candida albicans DSM-1665; type: cell-based; details: DSM1665, larger panel, read-out: MIC Candida albicans DSM-1665
Experimental: as §1
as §2, with “Cystobactamides and reference drugs were added directly to the cultures in sterile 96-well plates as duplicates and serial dilutions were prepared. Microorganisms were grown on a microplate shaker (750 rpm, 30-37° C., 18-48 h), except S. pneumonia, which was grown at non-shaking conditions (37° C., 5% CO2, 18 h).” left out

[9] = tested on: Mycobacterium smegmatis ATCC700084; test: MIC microdilution, Mycobacterium smegmatis ATCC700084; type: cell-based; details: Mycolicibacterium smegmatis, ATCC700084; larger panel; read-out: MIC Mycobacterium smegmatis ATCC700084
Experimental: as §1
as §2, with “Cystobactamides and reference drugs were added directly to the cultures in sterile 96-well plates as duplicates and serial dilutions were prepared. Microorganisms were grown on a microplate shaker (750 rpm, 30-37° C., 18-48 h), except S. pneumonia, which was grown at non-shaking conditions (37° C., 5% CO2, 18 h).” left out

[10] = tested on: Pseudomonas aeruginosa DSM-24599; test: MIC microdilution, P. aeruginosa DSM-24599; type: cell-based; details: Pseudomonas aeruginosa, DSM24599; larger panel; read-out: MIC Pseudomonas aeruginosa DSM-24599
Experimental: as §1, §2

Pichia anomala DSM-6766 = test: MIC microdilution, Pichia anomala DSM-6766; type: cell-based; details: Hansenula anomala, DSM6766; larger panel; read-out: MIC Pichia anomala DSM-6766
Experimental: as §1
as §2, with “Cystobactamides and reference drugs were added directly to the cultures in sterile 96-well plates as duplicates and serial dilutions were prepared. Microorganisms were grown on a microplate shaker (750 rpm, 30-37° C., 18-48 h), except S. pneumonia, which was grown at non-shaking conditions (37° C., 5% CO2, 18 h).” left out

[11] = tested on: Proteus vulgaris DSM-2140; test: MIC microdilution, P. vulgaris DSM-2140; type: cell-based; details: Proteus vulgaris, DSM2140
Experimental: as §1, §2

[12] = tested on: Pseudomonas aeruginosa ATCC27853; test: MIC microdilution, P. aeruginosa ATCC27853; type: cell-based; details: Pseudomonas aeruginosa, ATCC27853; larger panel; read-out: MIC Pseudomonas aeruginosa ATCC27853
Experimental: as §1, §2

[13] = tested on: E. coli DSM-26863 (tolC3); test: MIC microdilution, E. coli DSM-26863 (tolC3); type: cell-based, Escherichia coli; details: Escherichia coli
Experimental: as §1, §2

[14] = tested on: Staphylococcus epidermidis DSM-28765; test: MIC microdilution, Staphylococcus epidermidis DSM-28765; type: cell-based; details: Staphylococcus epidermidis, DSM28765; larger panel; read-out: MIC Staphylococcus epidermidis DSM-28765
Experimental: as §1, §2

[15] = tested on: Micrococcus luteus DSM-1790; test: MIC microdilution, Micrococcus luteus DSM-1790; type: cell-based; details: DSM1790, larger panel, read-out: MIC Micrococcus luteus DSM-1790
Experimental: as §1
as §2, with “Cystobactamides and reference drugs were added directly to the cultures in sterile 96-well plates as duplicates and serial dilutions were prepared. Microorganisms were grown on a microplate shaker (750 rpm, 30-37° C., 18-48 h), except S. pneumonia, which was grown at non-shaking conditions (37° C., 5% CO2, 18 h).” left out

[16] = tested on: Escherichia coli MI [gyrA(S83L)]; test: MIC microdilution, E. coli MI [gyrA(S83L)]; type: cell-based; details: read-out: MIC Escherichia coli MI [gyrA(S83L)]
Experimental: as §1
as §2, with “Cystobactamides and reference drugs were added directly to the cultures in sterile 96-well plates as duplicates and serial dilutions were prepared. Microorganisms were grown on a microplate shaker (750 rpm, 30-37° C., 18-48 h), except S. pneumonia, which was grown at non-shaking conditions (37° C., 5% CO2, 18 h).” left out

[17] = tested on: Enterococcus faecium DSM-20477; test: MIC microdilution, Enterococcus faecium DSM-20477; type: cell-based; details: Enterococcus faecium, DSM20477; larger panel; read-out: MIC Enterococcus faecium DSM-20477
Experimental: as §1, §2

[18] = tested on: Chromobacterium violaceum DSM-30191; test: MIC microdilution, Chromobacterium violaceum DSM-30191; type: cell-based; details: DSM30191, larger panel, read-out: MIC Chromobacterium violaceum DSM-30191
Experimental: as §1
as §2, with “Cystobactamides and reference drugs were added directly to the cultures in sterile 96-well plates as duplicates and serial dilutions were prepared. Microorganisms were grown on a microplate shaker (750 rpm, 30-37° C., 18-48 h), except S. pneumonia, which was grown at non-shaking conditions (37° C., 5% CO2, 18 h).” left out

[19] = tested on: Streptococcus pneumoniae DSM-20566; test: MIC microdilution, Streptococcus pneumoniae DSM-20566; type: cell-based; details: DSM20566, larger panel, read-out: MIC Streptococcus pneumoniae DSM-20566
Experimental: as §1
as §2, with “Cystobactamides and reference drugs were added directly to the cultures in sterile 96-well plates as duplicates and serial dilutions were prepared. Microorganisms were grown on a microplate shaker (750 rpm, 30-37° C., 18-48 h), except S. pneumonia, which was grown at non-shaking conditions (37° C., 5% CO2, 18 h).” left out

E. coli WT = test: MIC microdilution, E. coli WT; type: cell-based, Escherichia coli; details: Escherichia coli
Experimental: as §1, §2

[20] = tested on: Escherichia coli ATCC35218; test: MIC microdilution, E. coli ATCC35218; type: cell-based; details: ATCC35218, larger panel, read-out: MIC Escherichia coli ATCC35218
Experimental: as §1
as §2, with “Cystobactamides and reference drugs were added directly to the cultures in sterile 96-well plates as duplicates and serial dilutions were prepared. Microorganisms were grown on a microplate shaker (750 rpm, 30-37° C., 18-48 h), except S. pneumonia, which was grown at non-shaking conditions (37° C., 5% CO2, 18 h).” left out

[21] = tested on: Pseudomonas aeruginosa PA14; test: MIC microdilution, P. aeruginosa PA14; type: cell-based; details: Pseudomonas aeruginosa, PA14; larger panel; read-out: MIC Pseudomonas aeruginosa PA14
Experimental: as §1, §2

In the case of O=C(O)c1cn(C2CC2)c2cc(N3CCNCC3)c(F)cc2c1=O [CP, Ciprofloxacin, reference compound], the MIC [1] is reported as 0.1 µg/mL (≈ 0.302 µM), the MIC [2] is reported as 0.4 µg/mL (≈ 1.21 µM) and the MIC [3] is reported as greater than 6.4 µg/mL. It also gave an MIC [4] of 0.8 µg/mL (≈ 2.41 µM), an MIC [5] of 0.025 µg/mL (≈ 0.0754 µM) and an MIC [6] of 0.1 µg/mL (≈ 0.302 µM). The MIC (E. coli DSM-1116; Gram-negative set, read-out: MIC E. coli DSM-1116) was 0.01 µg/mL (≈ 0.0302 µM), the MIC (E. coli DSM-1116; larger panel, read-out: MIC Escherichia coli DSM-1116) was 0.013 µg/mL (≈ 0.0392 µM) and the MIC ([7]; Gram-negative set, read-out: MIC P. aeruginosa DSM-24600 (ESBL)) was 3.2 µg/mL (≈ 9.66 µM). For the same compound, the MIC ([7]; larger panel, read-out: MIC Pseudomonas aeruginosa DSM-24600 (ESBL)) was 3.2 µg/mL (≈ 9.66 µM), the MIC [8] was greater than 6.4 µg/mL and the MIC [9] was 0.2 to 0.4 µg/mL (≈ 0.604 to 1.21 µM). For the same compound, the MIC [10] was greater than 6.4 µg/mL, the MIC (Pichia anomala DSM-6766) was greater than 6.4 µg/mL and the MIC ([11]; Gram-negative set, read-out: MIC P. vulgaris DSM-2140) was 0.01 µg/mL (≈ 0.0302 µM). The MIC ([11]; larger panel, read-out: MIC Proteus vulgaris DSM-2140) was 0.01 µg/mL (≈ 0.0302 µM), the MIC [12] was 0.1 to 0.2 µg/mL (≈ 0.302 to 0.604 µM) and the MIC ([13]; DSM26863, read-out: MIC E. coli DSM-26863 (tolC3)) was no more than 0.003 µg/mL. For the same compound, the MIC ([13]; DSM26863, read-out: MIC Escherichia coli DSM-26863 (tolC3)) was 0.003 µg/mL (≈ 0.00905 µM), the MIC [14] was 0.2 µg/mL (≈ 0.604 µM) and the MIC [15] was 0.8 to 1.6 µg/mL (≈ 2.41 to 4.83 µM). The MIC [16] was 0.4 to 0.8 µg/mL (≈ 1.21 to 2.41 µM), the MIC [17] was greater than 6.4 µg/mL and the MIC [18] was 0.006 to 0.013 µg/mL (≈ 0.0181 to 0.0392 µM). The MIC [19] was 0.8 to 1.6 µg/mL (≈ 2.41 to 4.83 µM), the MIC (E. coli WT; Gram-negative set, read-out: MIC E. coli WT) was 0.013 µg/mL (≈ 0.0392 µM) and the MIC (E. coli WT; larger panel, read-out: MIC Escherichia coli WT) was 0.013 µg/mL (≈ 0.0392 µM). The MIC [20] was 0.013 µg/mL (≈ 0.0392 µM) and the MIC [21] was 0.1 µg/mL (≈ 0.302 µM).
